Test results taken from ChEMBL document CHEMBL4130580, “Bibenzyl-Based Meroterpenoid Enantiomers from the Chinese Liverwort Radula sumatrana” (J Nat Prod, 2017).

How the values were obtained:
MCF7 = assay: Cytotoxicity against human MCF7 cells assessed as reduction in cell viability by MTT assay
PC-3 = assay: Cytotoxicity against human PC3 cells assessed as reduction in cell viability by MTT assay
SMMC-7721 = assay: Cytotoxicity against human SMMC7721 cells assessed as reduction in cell viability by MTT assay

CC12CCC3C1C(c1c(CCc4ccccc4)cc(O)cc1O2)C3(C)C (centres undefined)
IC50 (MCF7): 14 µM
IC50 (PC-3): 19.6 µM
IC50 (SMMC-7721): 14.5 µM

C=C(C)C1CCC2(C)Oc3cc(O)cc(CCc4ccccc4)c3C1C2O (racemic)
IC50 (MCF7): 38.2 µM
IC50 (PC-3): > 40 µM
IC50 (SMMC-7721): > 40 µM

CC12CCc3cc(CCc4ccccc4)cc(O)c3C1C2 (racemic)
IC50 (MCF7): 24.7 µM
IC50 (PC-3): > 40 µM
IC50 (SMMC-7721): 34.2 µM
